Results taken from US7615574B2, “Synergistic composition for treating leukemia” (Council of Scientific and Industrial Research, priority 2002, dated 2009).
Read-outs that look alike come from different tables or passages of the source.

How the values were obtained:
[1] = tested on: U937 Promonocyte cell line; assay: CA, PCQ and combination: growth inhibition of U937 (2×10^6 cells per ml per well); assay type: cell-based, human; details: for percentage growth inhibition of promonocyte cells: concentration not given
[2] = tested on: K 562 Erythroleukemia cell line; assay: CA, PCQ and combination: growth inhibition of K562 (2×10^6 cells per ml per well); assay type: cell-based, human; details: for percentage growth inhibition of Erythroleukemia cells: concentration not given
Normal individual's PBMC = assay: CA, PCQ and combination: growth inhibition of normal individual's PBMC (2×10^6 cells per ml per well); assay type: cell-based, human
Description: Preparation of peripheral blood mononuclear cells (PBMC) from normal individuals. Whole blood was collected and mononuclear cells were separated by Ficoll/Hypaque density gradient centrifugation.
The number of cells used was 2×10^6 per ml per well.

leukemia cells = assay: Biological activity of Piper betel HPLC zones and peaks: destruction of leukemic cells; assay type: cell-based; details: HPLC zones and peaks of Fraction E of Piper betel leaf extract
Excerpt: Collected material was examined for biological activity i.e. destruction of leukemic cells. […] 10 gm of above-mentioned material was loaded on Sephadex LH-20 column and chromatographed with water, water-methanol (1:1) and methanol as eluent. Three different fractions thus obtained from three different solvent systems were separately checked for biological activity. The activity was located only on
Fraction 2 i.e. Methanol-water (1:1) and termed as fraction E. Fraction E was then subjected to HPLC analysis using Intersil ODS-3 analytical column. The column was equilibrated with methanol-water-acetic acid (23:76:1), flow rate was maintained at 1.0 ml per min and peaks were identified at 280 nm. According to the retention time (RE) different peaks could be divided into three zones, ZA, ZB and ZC (FIG. 1). ZA had 4 major peaks whereas ZB had very small to moderate 10 peaks and ZC had two distinct peaks. It was convenient to observe biological activity of three zones AA, ZB and ZC, which were separately tested on leukemia cells for destructive activity.
The Zone ZB contained 10 peaks (1 to 10) of varied sizes. […] For this reason all different peaks were separately monitored for biological activity. […] On searching for activity of these peaks i.e. 1,5,6,7,9 and 10 corresponding to Rt 5.16, 8.34, 9.16, 9.86, 13.94 and 14.68 respectively. […]

[3] = tested on: CML Patient's Leukemic cells; assay: CA, PCQ and combination: growth inhibition of CML patient's leukemic cells (2×10^6 cells per ml per well); assay type: cell-based, human; details: for percentage growth inhibition of CML's leukemic cells: concentration not given
[4] = tested on: CML Patient's Leukemic cells; assay: Analysis of cell cycle progression and apoptosis by Flow cytometry (propidium iodide); assay type: cell-based, human; details: 100.0 μg/ml; two days of culture
Description: Analysis of cell cycle progression and apoptosis by Flow cytometry PBMC of a CML patient was cultured in RPMI-1640 medium supplemented with 10% […] fetal bovine serum in the presence or absence of CA (100.0 μg/ml) for 48 hr. at 37° C. in 5% CO2. Cells were fixed with 40% ethanol treated with 500 μg/ml Rnase A, and then with 69 μM propidium iodide for analysis of DNA content by Flow Cytometry as described (Mitra et al., Molecular Medicine, 6:527-541, 2000).

CML patient's PBMC = assay: Incubation of CML patient's PBMC with CA, viable cell count (growth inhibition); assay type: cell-based, human; details: PBMC / leukemic cells of CML patient
Description: Whole blood (10 ml each) was drawn from previously diagnosed myeloid leukemic patients, one patient was diagnosed as AML and the other one was diagnosed as CML. Mononuclear cells were separated by Ficoll/hypaque density gradient centrifugation. PBMC (1×10^5-2×10^6/ml) of myeloid leukemia patients were incubated with varied concentrations of CA for 48 hours at 37° C. in 5% CO2. Cells were then washed and counted for viability.

[5] = tested on: Molt 4 (T lymphoid Cell line); assay: Growth inhibition of T lymphoid cell line Molt 4 by CA in vitro; assay type: cell-based; details: Homo sapiens, 1 × 10^5 cells per ml per well, read-out: Percentage Inhibition of Cell Growth; for inhibition at 50 µg/mL: CA 50.0 μg/ml; for inhibition at 100 µg/mL: CA 100.0 μg/ml; for inhibition at 200 µg/mL: CA 200.0 μg/ml
Excerpt: Culture of T-Lymphoid cell line Molt-4. This cell line was obtained from American Type culture collection (ATCC), VA, USA and grown in vitro as described for the cell line K562.

O=C(C=Cc1ccc(O)cc1)OC1CC(O)(C(=O)O)CC(O)C1O (stereo not shown) [PCQ, 3-o-p-Coumaryl quinic acid]
% Inhibition of cell growth (After 1 day of incubation) ([1]; U937, single compound 50.0 μg/ml, 1 day, 2×10^6 cells per ml per well): 4.17% | percentage growth inhibition of promonocyte cells [1]: about 5% | % Inhibition of cell growth (After 1 day of incubation) ([2]; K 562, single compound 50.0 μg/ml, 1 day, 2×10^6 cells per ml per well): 8.00% | percentage growth inhibition of Erythroleukemia cells [2]: about 8% | % Inhibition of cell growth (After 1 day of incubation) (Normal individual's PBMC; single compound 25.0 μg/ml): 0.00% | % Inhibition of cell growth (After 1 day of incubation) (Normal individual's PBMC; single compound 50.0 μg/ml): 1.67% | biological activity i.e. destruction of leukemic cells (in words) (leukemia cells): demonstrated considerable activity | % Inhibition of cell growth (After 1 day of incubation) ([3]; CML patient's leukemic cells, single compound 50.0 μg/ml, 1 day, 2×10^6 cells per ml per well): 4.67% | percentage growth inhibition of CML's leukemic cells [3]: about 5%

O=C(/C=C/c1ccc(O)c(O)c1)O[C@@H]1C[C@](O)(C(=O)O)C[C@@H](O)[C@H]1O (single isomer, unassigned) [CA, Chlorogenic acid]
apoptosis in CML patients Leukemic cells in vitro (cell-cycle analysis) [4]: caused apoptosis | inhibition at 25 µg/mL ([1]; Homo sapiens, U-937, 24 h, U937, single compound 25.0 μg/ml, 1 day, 2×10^6 cells per ml per well, read-out: % Inhibition of cell growth (After 1 day of incubation)): ≤ 16.7% | percentage growth inhibition of promonocyte cells [1]: about 25% | percentage growth inhibition of Erythroleukemia cells [2]: about 30% | destruction of cells (in words) (CML patient's PBMC): destroyed | inhibition at 50 µg/mL ([5]; 24 h, 1 day): 3.57% | inhibition at 100 µg/mL ([5]; 24 h, 1 day): 6.89% | inhibition at 200 µg/mL ([5]; 24 h, 1 day): 13.8% | inhibition at 50 µg/mL ([5]; 48 h, 2 days): 6.67% | inhibition at 100 µg/mL ([5]; 48 h, 2 days): 14.7% | inhibition at 200 µg/mL ([5]; 48 h, 2 days): 46.7% | inhibition at 100 µg/mL ([5]; 72 h, 3 days): 18.8% | biological activity i.e. destruction of leukemic cells (in words) (leukemia cells): detectable activity | inhibition at 25 µg/mL ([3]; Homo sapiens, 24 h, CML patient's leukemic cells, single compound 25.0 μg/ml, 1 day, 2×10^6 cells per ml per well, read-out: % Inhibition of cell growth (After 1 day of incubation)): ≤ 2.38% | inhibition at 50 µg/mL ([3]; Homo sapiens, 24 h, CML patient's leukemic cells, single compound 50.0 μg/ml, 1 day, 2×10^6 cells per ml per well, read-out: % Inhibition of cell growth (After 1 day of incubation)): 4.67% | percentage growth inhibition of CML's leukemic cells [3]: about 5%
